Test results published in ChEMBL document CHEMBL1142041, “3-(2,5-Dihydro-1H-pyrrol-2-ylmethoxy)pyridines: synthesis and analgesic activity” (2005).

Key:
Mus musculus [1] = experiment: Analgesic activity of compound in phase I mouse formalin activities at a dose range of […], s.c.; exhibited confounding effects; assay type: functional, organism-based
Mus musculus [2] = experiment: Analgesic activity of compound in phase II mouse formalin activities at a dose range of […], s.c.; exhibited confounding effects; assay type: functional, organism-based
Mus musculus [3] = experiment: Analgesic activity of compound in phase II mouse formalin activities at a dose range of 0.4-3.1 mg, s.c.; assay type: functional; conditions: sc
Mus musculus [4] = experiment: Analgesic activity of compound in phase I mouse formalin activities at a dose range of 0.4-3.1 mg, s.c.; assay type: functional; conditions: sc
Mus musculus [5] = experiment: Analgesic activity of compound in phase II mouse formalin activities at a dose range of 0.4-6.3 mg, s.c.; assay type: functional; conditions: sc
Mus musculus [6] = experiment: Analgesic activity of compound in phase I mouse formalin activities at a dose range of 0.4-6.3 mg, s.c.; assay type: functional; conditions: sc

Row | SMILES | ED50 (Mus musculus [1]) | ED50 (Mus musculus [2]) | also measured
1 | C[C@]1(COc2ccc(Cl)nc2)C=CCN1 | Counfounding effects | Counfounding effects | –
2 | C[C@]1(COc2cccnc2)C=CCN1 | Counfounding effects | Counfounding effects | –
3 | Clc1ccc(OC[C@H]2CCN2)cn1 [TEBANICLINE] | – | – | ED50 (Mus musculus [3]): 0.8 µmol/kg; ED50 (Mus musculus [4]): 0.9 µmol/kg
4 | C[C@]1(CNc2ccc(Cl)nc2)C=CCN1 | Counfounding effects | Counfounding effects | –
5 | Clc1ccc(OC[C@@H]2C=CCN2)cn1 | Counfounding effects | Counfounding effects | –
6 | Clc1ccc(OC[C@H]2C=CCN2)cn1 | – | – | ED50 (Mus musculus [5]): 1.6 µmol/kg; ED50 (Mus musculus [6]): 1.6 µmol/kg
7 | C[C@@]1(COc2ccc(Cl)nc2)C=CCN1 | Counfounding effects | Counfounding effects | –
